Results reported in patent US5070210A, “Novel ketenimines as intermediates for insecticides” (ICI Americas Inc., priority 1990, dated 1991).

What was measured:
Format in all cases: in vivo
[1] = test system: Housefly [Musca domestica]; assay: Housefly insecticidal test; settings: μg per 25 female flies; mortality after 48 hours
How it was run: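 Acetone solutions (with 0.01% peanut oil) dried onto dish bottoms, then 25 female flies, 1-2 days old, caged over the residue with sugar water. Mortality scored at 48 hours; LC50 from dosage-mortality curves, in μg per 25 female flies, top level 100 μg.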

[2] = test system: Tobacco Budworm [Heliothis virescens (Fabricius)] eggs; assay: Tobacco budworm egg test; settings: 2-day old eggs, percent in solution
How it was run: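 2-day eggs on paper towel, acetone dip, 0.1% and below; petri dish with larval diet, 78° F. Mortality read after control hatch and larval feeding. LC50 = % compound in solution, from dose-mortality curve.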

[3] = test system: Cabbage Looper [Trichoplusia ni (Hubner)]; assay: Cabbage looper insecticidal test; settings: second-instar larvae, percent in solution; 3-5 days
How it was run: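 LC50 values, given as percent test compound in solution, were calculated from dosage-mortality curves. Squash cotyledons were immersed 2-3 s in acetone-water (50-50) dilutions starting at 0.1%, dried on a screen, then infested with five second-instar larvae. Mortality was read 3-5 days on.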

Row | SMILES | LC50, HF [1] | LC50, TBW, E (TBW-E) [2] | LC50, CL [3]
1 | CC(C)C(=Nc1ccc2c(c1)OCO2)OCc1c(F)c(F)c(F)c(F)c1F [Compound 464] | > 100 µg | > 0.1% | 0.08%
2 | CC(C)C(=Nc1ccc2c(c1)OCO2)OCc1cccc(Oc2ccccc2)n1 [Compound 467] | 6 µg | 0.04% | 0.003%
3 | CC(C)C(=Nc1ccc2c(c1)OC(C)(C)O2)OCc1cccc(Oc2ccc(Cl)cc2)n1 [Compound 468] | 50 µg | > 0.1% | > 0.1%
4 | CC(C)C(=Nc1cccc(C(F)(F)F)c1)OCc1cccc(Oc2ccncc2)c1 [Compound 469] | 40 µg | > 0.1% | 0.02%
5 | CC(C)C(=Nc1ccc(F)c(Cl)c1)OCc1cccc(Oc2ccncc2)c1 [Compound 470] | 25 µg | > 0.1% | 0.02%
6 | CC(C)C(=Nc1ccc(F)c(Cl)c1)OCc1cccc(OCc2ccccc2)c1 [Compound 472] | > 100 µg | > 0.1% | 0.0025%
7 | CC(C)C(=Nc1ccc(F)c(Cl)c1)OCc1ccc(F)c(Br)c1 [Compound 473] | > 100 µg | > 0.1% | 0.025%
8 | CC(C)C(=Nc1ccc(F)c(Cl)c1)OCc1coc(Cc2ccccc2)c1 [Compound 474] | 8 µg | > 0.1% | 0.0012%
9 | CC(C)C(=Nc1cccc(C(F)(F)F)c1)OCc1ccc(OCc2ccccc2)cc1 [Compound 476] | > 100 µg | > 0.1% | 0.015%
10 | C=CCOc1cccc(COC(=Nc2cccc(C(F)(F)F)c2)C(C)C)c1 [Compound 480] | > 100 µg | > 0.1% | 0.01%
11 | C=CCOc1cccc(COC(=Nc2ccc(Cl)c(Cl)c2)C(C)C)c1 [Compound 481] | > 100 µg | > 0.1% | 0.015%
12 | CC(C)C(=Nc1ccc(Cl)cc1)OCc1coc(Cc2ccccc2)c1 [Compound 484] | 16 µg | > 0.1% | 0.003%
13 | CC(C)C(=Nc1ccc(F)c(F)c1)OCc1coc(Cc2ccccc2)c1 [Compound 485] | 24 µg | > 0.1% | > 0.1%
14 | CC(C)C(=Nc1ccc(F)c(Cl)c1)OCc1ccc(OCc2ccc(F)cc2)cc1 [Compound 487] | > 100 µg | > 0.1% | 0.023%
15 | CC(C)C(=Nc1cccc(C(F)(F)F)c1)OCc1ccc(OCc2ccc(F)cc2)cc1 [Compound 488] | > 100 µg | > 0.1% | 0.025%
16 | CC(C)C(=Nc1cccc(C(F)(F)F)c1)OCc1cccc(OCc2ccc(F)cc2)c1 [Compound 489] | > 100 µg | > 0.1% | < 0.1%
17 | CC(C)C(=Nc1ccc(F)cc1)OCc1coc(Cc2ccccc2)c1 [Compound 491] | 9 µg | 0.08% | 0.0028%
18 | CC(C)C(=Nc1cccc(C(F)(F)F)c1)OCc1cccc(Oc2ccc(Br)cc2)n1 [Compound 493] | 36 µg | 0.05% | 0.0008%
19 | Cc1ccc(Oc2cccc(COC(=Nc3ccc(F)c(Cl)c3)C(C)C)n2)cc1 [Compound 494] | 34 µg | > 0.1% | 0.003%
20 | Cc1ccc(Oc2cccc(COC(=Nc3cccc(C(F)(F)F)c3)C(C)C)n2)cc1 [Compound 495] | > 100 µg | 0.1% | 0.012%
21 | CC(C)C(=Nc1ccc(C(C)(C)C)cc1)OCc1cccc(Oc2ccccc2)n1 [Compound 496] | > 100 µg | > 0.1% | 0.006%
22 | CC(C)C(=Nc1ccc(C(C)(C)C)cc1)OCc1cccc(Oc2ccc(Cl)cc2)n1 [Compound 497] | > 100 µg | > 0.1% | 0.0075%
23 | CC(C)C(=Nc1ccc(F)c(Cl)c1)OC(C)c1cccc(Oc2ccccc2)n1 (stereo not drawn) [Compound 498] | 49 µg | > 0.1% | 0.002%
24 | CC(C)C(=Nc1cccc(C(F)(F)F)c1)OC(C)c1cccc(Oc2ccccc2)n1 (stereo not drawn) [Compound 499] | 63 µg | > 0.1% | 0.0024%
